These results are taken from US7501233B2, “Method for measuring the vitality of cells” (priority 2000, dated 2009).

*1 amine or outer side, *2 acyl side, *3 side chain or, on linkers, in order; H or OH if unused. Where a SMILES comes first, the peptide text is derived from it. Bridges are numbered along the chain shown (N, C = ends). Roman numbers before positions name the chains, in order. [ ]: non-standard residue; d: D form. Actinocin(9to1) = Cc1c2oc3c(C)ccc(C(=O)[*:1])c3nc-2c(C(=O)[*:2])c(N)c1=O; NMeV = CN[C@H](C(=O)O)C(C)C; Sar = CNCC(=O)O

The test system of this assay is Jurkat cells. The assay is described as follows: Electrorotation measurement (ER spectra) of single cells in a microelectrode field cage. The assay is classed as cell-based. The text has this: An instrument already described by C. C. Reichle, T. Schnelle, T. Müller, T. Leya and G. Fuhr (2000, A new microsystem for automatic electrorotation measurements using laser tweezers, Biochimica et Biophysica Acta 1459, p. 218- 229), a combination of dielectrophoretical field cages with optical traps, especially laser tweezers, was used for determination of the electrorotation spectra (FIG. 6). […] Reichle and G. Fuhr 2000, Combined dielectrophoretic field cages and laser tweezers for electrorotation, Applied Physics B, Lasers and Optics, Springer Verlag.
Jurkat T lymphoma cells and U937 monocytic cells were cultivated in RPMI-1640 medium supplemented with 10% fetal calf serum and 100 IU/ml penicillin as well as 100 IU/ml streptomycin. Apoptosis was triggered by addition of 5 μg/ml actinomycin D in a culture that was seeded the day before with 2×10^5 cells per ml. The classical morphological changes during apoptosis were documented photographically (see FIG. 1). At different times, an aliquot was taken from the culture, added to a mixture of isotonic phosphate buffer (PBS, D8662 from SIGMA with calcium and magnesium) and, if desired, 0.3 M inositol with correspondingly indicated electrical conductivity, and introduced in a device for measurement of the electrorotation in a microelectrode system. As a control, untreated Jurkat cells were used (FIG. 5). For comparison, electrorotation spectra (ER spectra) were determined from ionomycin-treated cells ([…]) as well as from cells the plasma membrane of which had been damaged by increasing the voltage from 4 V to 6.8 V or a treatment with optical tweezers with 30-60 mW (2.8 A of the 1 W Nd:YAG laser, TEM00, 1064 nm, LD 3000i, Laser Quantum Ltd., Manchester, UK, P.A.L.M. System) for 15 minutes. For this, the cells were transferred individually to the center of the quadrupole or octupole of the microelectrode system. For this, optical tweezers with a power of approx. 30 mW were used in the indicated cases at the site of holding. The frequency of the cell rotation was measured either automatically or using a timer (FIG. 2). The uptake of propidium iodine (5 μm) in necrotically damaged cells or comparative measurements with vital and apoptotic cells (FIGS. 3 and 4) was measured by confocal nanofluorometry (Gradl, T. Müller, C. Reichle, T. Schnelle and G. Fuhr, 1999, Micro-Electrode Systems for Cell Analysis, European Journal of Cell Biology, Suppl. 49, Vol. 78; T. Schnelle, T. Müller, G. Gradl, S. G. Shirley and G. Fuhr, 2000, Dielectrophoretic manipulation of suspended submicron particles, ELECTROPHORESIS 2000, 21, p. 66-73).
The device for measurement of the electrorotation was attached to a fluorescence correlation spectrometer. The cells were made visible over a 40×W 1.2 NA lens. They were excited with 1.5 μW by a helium-neon laser with a wavelength of 543 nm and the radiated fluorescence was passed through a 585 DF 35 band pass filter over a 50 μm pinhole to a photodiode, with which the fluorescence photons were counted.

[1] abbreviates: ionomycin-treated cell vs. untreated cell, PBS.

For the compound `Cc1c2oc3c(C)ccc(C(=O)N[C@@H]4C(=O)N[C@H](C(C)C)C(=O)N5CCC[C@H]5C(=O)N(C)CC(=O)N(C)[C@@H](C(C)C)C(=O)O[C@@H]4C)c3nc-2c(C(=O)N[C@@H]2C(=O)N[C@H](C(C)C)C(=O)N3CCC[C@H]3C(=O)N(C)CC(=O)N(C)[C@@H](C(C)C)C(=O)O[C@@H]2C)c(N)c1=O` [actinomycin D, Actinomycin D] (I: T[dV]P[Sar][NMeV] / II: T[dV]P[Sar][NMeV]; ester I:1-I:C, II:1-II:C; linker I:N-II:N via Actinocin(9to1)), the “ratio of rotation speed at 10 MHz to rotation speed at 2.5 MHz” value (apoptotic Jurkat cell (actinomycin D, 4 hours), normal cell near 1, necrotic 0.6-0.8) came out at 1.4. Besides, the “field frequency of highest rotation speed in ER spectrum” value (apoptotic Jurkat cell, 5 μg/ml actinomycin D for 4 hours (FIG. 2E), normal cell maximum around 2.5 MHz) is listed as “approx. 10 MHz”.

As to `C[C@H](CCC(=O)O)C[C@H](C)C[C@H](C)C(=O)/C=C(\O)[C@H](C)C[C@H](C)C/C=C/[C@@H](C)[C@@H](O)[C@@H](C)[C@@H](O)C[C@@H]1CC[C@@](C)([C@H]2CC[C@@](C)([C@@H](C)O)O2)O1` [ionomycin, Ionomycin], for the setting “ionomycin 10 μM, Jurkat cell in PBS, from fits of ER spectra, increase from 45 (untreated)”, the “dielectric constant εω in the cell” value is given as 75. In addition, for the setting “ionomycin 10 μM, approx. 5 min, Jurkat cell in PBS, from fits of ER spectra, increase from 0.77 (untreated)”, the “conductivity σ (as sum of σ0, Δσ1 and Δσ2) in the cell” value is reported as 1.15 s m^−1. Also, under setting [1], the “increase in the HF conductivity of the cytoplasm” value is recorded as “approx. 40%” and the “increase of the dielectric constant of the cytoplasm” value is “more than 60%”.
